Laboratory results as given in patent publication US12629374B2, “Antimalarial agents” (Merck Sharp & Dohme LLC, priority 2020, dated 2026).
Like-named read-outs stand apart in the source and are kept apart here.

Test system: ring stage parasites
Assay: Parasite growth potency assay, 72 hours, LDH readout
Type: cell-based
Procedure, shortened: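 Parasite growth was quantified by LDH assay after a −80 °C freeze-thaw. Before that, compound was incubated for 72 h at 37 °C under humidified gas with ring-stage cultures adjusted to 0.7% parasitemia and 2% haematocrit in serum- and albumax-supplemented RPMI-Hepes.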

[1] = 72 h, parasite growth measured by LDH assay after 72 hours at 37° C., 0.7% rings, 2% haematocrit, read-out: EC50
[2] = parasite growth measured by LDH assay after 72 hours at 37° C., 0.7% rings, 2% haematocrit, read-out: EC50

Compound	EC50 [1] [nM]	other results
CCC1(CC)CC(=O)N([C@@H](c2cccc(C(=O)N[C@@H]3c4ccccc4C[C@H]3O)c2)c2cccc(S(C)(=O)=O)c2)C(=N)N1 [Example 124A, [4,4-diethyl-1-[[3-[[(1R,2R)-2-hydroxyindan-1-yl]carbamoyl]phenyl]-(3-methylsulfonylphenyl)methyl]-6-oxo-hexahydropyrimidin-2-ylidene]ammonium; 2,2,2-trifluoroacetate]	9.9	
CCC1(CC)CC(=O)N([C@H](c2cccc(C(=O)N[C@@H]3c4ccccc4C[C@H]3O)c2)c2cccc(S(C)(=O)=O)c2)C(=N)N1 [Example 124B, [4,4-diethyl-1-[[3-[[(1R,2R)-2-hydroxyindan-1-yl]carbamoyl]phenyl]-(3-methylsulfonylphenyl)methyl]-6-oxo-hexahydropyrimidin-2-ylidene]ammonium; 2,2,2-trifluoroacetate]	53	
CCC1(CC)CC(=O)N([C@H](CCOC)c2cncc(C(=O)N[C@@H]3c4ccccc4C[C@H]3O)c2)C(=N)N1 [Example 125, [4,4-diethyl-1-[1-[5-[[(1R,2R)-2-hydroxyindan-1-yl]carbamoyl]pyridin-1-ium-3-yl]-3-methoxy-propyl]-6-oxo-hexahydropyrimidin-2-ylidene]ammonium; 2,2,2-trifluoroacetate]	2.7	
CCC[C@H](c1cccc(C(=O)N[C@H]2c3ccccc3OCC2O)c1)N1C(=N)NC(CC)(CC)CC1=O (stereo partly drawn) [Example 127A, 3-[(1R)-1-(4,4-diethyl-2-imino-6-oxo-hexahydropyrimidin-1-yl)butyl]-N-(3-hydroxychroman-4-yl)benzamide]	97.4	
CCC[C@H](c1cccc(C(=O)N[C@H]2c3ccccc3OCC2O)c1)N1C(=N)NC(CC)(CC)CC1=O (stereo partly drawn) [Example 127C, 3-[(1R)-1-(4,4-diethyl-2-imino-6-oxo-hexahydropyrimidin-1-yl)butyl]-N-(3-hydroxychroman-4-yl)benzamide]		EC50 [2]: 53.8 nM
CCC[C@H](c1cccc(C(=O)N[C@@H]2c3ccccc3OCC2O)c1)N1C(=N)NC(CC)(CC)CC1=O (stereo partly drawn) [Example 127D, 3-[(1R)-1-(4,4-diethyl-2-imino-6-oxo-hexahydropyrimidin-1-yl)butyl]-N-(3-hydroxychroman-4-yl)benzamide]	1.2	
COCC[C@H](c1cncc(C(=O)N[C@@H]2c3ccccc3C[C@H]2O)c1)N1C(=N)N[C@](C)(C(C)C)CC1=O [Example 130, [(4S)-1-[1-[5-[[(1R,2R)-2-hydroxyindan-1-yl]carbamoyl]pyridin-1-ium-3-yl]-3-methoxy-propyl]-4-isopropyl-4-methyl-6-oxo-hexahydropyrimidin-2-ylidene]ammonium; 2,2,2-trifluoroacetate]	18.8	
CCC1(CC)CC(=O)N([C@@H](CCOC)c2cccc(C(=O)N[C@H]3C[C@H](C(F)(F)F)Oc4ccccc43)c2)C(=N)N1 [Example 132A, [[(2R,4S)-2-(trifluoromethyl)chroman-4-yl]carbamoyl]phenyl]propyl]-6-oxo-hexahydropyrimidin-2-ylidene]ammonium; 2,2,2-trifluoroacetate]	59	
CCC1(CC)CC(=O)N([C@H](CCOC)c2cccc(C(=O)N[C@H]3C[C@H](C(F)(F)F)Oc4ccccc43)c2)C(=N)N1 [Example 132B, [4,4-diethyl-1-[3-methoxy-1-[3-[[(2R,4S)-2-(trifluoromethyl)chroman-4-yl]carbamoyl]phenyl]propyl]-6-oxo-hexahydropyrimidin-2-ylidene]ammonium; 2,2,2-trifluoroacetate]	0.9	
CCC1(CC)CC(=O)N(Cc2cc(C(=O)N[C@H]3C[C@H](C(F)(F)F)Oc4ccccc43)ccn2)C(=N)N1 [Example 134, [4,4-diethyl-6-oxo-1-[[4-[[(2R,4S)-2-(trifluoromethyl)chroman-4-yl]carbamoyl]pyridin-1-ium-2-yl]methyl]hexahydropyrimidin-2-ylidene]ammonium; 2,2,2-trifluoroacetate]	8.6	
CCC1(CC)CC(=O)N([C@H](CCN2CCOCC2)c2cccc(C(=O)N[C@H]3CC(C)(C)Oc4ccccc43)c2)C(=N)N1 [Example 135, [1-[1-[3-[[(4S)-2,2-dimethylchroman-4-yl]carbamoyl]phenyl]-3-morpholin-4-ium-4-yl-propyl]-4,4-diethyl-6-oxo-hexahydropyrimidin-2-ylidene]ammonium; 2,2,2-trifluoroacetate]	1	
CCC1(CC)CC(=O)N([C@H](CCN2CCOCC2)c2cccc(C(=O)N[C@H]3C[C@H](C(F)(F)F)Oc4ccccc43)c2)C(=N)N1 [Example 136, [4,4-diethyl-1-[3-morpholin-4-ium-4-yl-1-[3-[[(2R,4S)-2-(trifluoromethyl)chroman-4-yl]carbamoyl]phenyl]propyl]-6-oxo-hexahydropyrimidin-2-ylidene]ammonium; 2,2,2-trifluoroacetate]	1.3	
CCC1(CC)CC(=O)N([C@H](CCOC)c2cc(F)cc(C(=O)N[C@@H]3c4ccccc4C[C@H]3O)c2)C(=N)N1 [Example 138, [4,4-diethyl-1-[1-[3-fluoro-5-[[(1R,2R)-2-hydroxyindan-1-yl]carbamoyl]phenyl]-3-methoxy-propyl]-6-oxo-hexahydropyrimidin-2-ylidene]ammonium; 2,2,2-trifluoroacetate]	2.7	
CCC1(CC)CC(=O)N([C@H](COCCOC)c2cccc(C(=O)N[C@@H]3c4ccccc4OC(C)(C)[C@H]3O)c2)C(=N)N1 [Example 139, [4,4-diethyl-1-[(1S)-1-[3-[[(3S,4R)-3-hydroxy-2,2-dimethyl-chroman-4-yl]carbamoyl]phenyl]-2-(2-methoxyethoxy)ethyl]-6-oxo-hexahydropyrimidin-2-ylidene]ammonium; 2,2,2-trifluoroacetate]	1.5	
CCC1(CC)CC(=O)N([C@H](COCCOC)c2cccc(C(=O)N[C@@H]3c4ccccc4C[C@H]3O)c2)C(=N)N1 [Example 140, [4,4-diethyl-1-[(1S)-1-[3-[[(1R,2R)-2-hydroxyindan-1-yl]carbamoyl]phenyl]-2-(2-methoxyethoxy)ethyl]-6-oxo-hexahydropyrimidin-2-ylidene]ammonium; 2,2,2-trifluoroacetate]	3.2	
CCC1(CC)CC(=O)N(Cc2cc(F)cc(C(=O)N[C@@H]3c4ccccc4OC(C)(C)[C@H]3O)c2)C(=N)N1 [Example 141, [4,4-diethyl-1-[[3-fluoro-5-[[(3S,4R)-3-hydroxy-2,2-dimethyl-chroman-4-yl]carbamoyl]phenyl]methyl]-6-oxo-hexahydropyrimidin-2-ylidene]ammonium; 2,2,2-trifluoroacetate]	0.8	
CCC1(CC)CC(=O)N([C@H](CC(C)(C)O)c2cccc(C(=O)N[C@H]3CC(C)(C)Oc4ccccc43)c2)C(=N)N1 [Example 145, 3-[1-(4,4-diethyl-2-imino-6-oxo-hexahydropyrimidin-1-yl)-3-hydroxy-3-methyl-butyl]-N-[(4S)-2,2-dimethylchroman-4-yl]benzamide]	0.7	
CCC1(CC)CC(=O)N([C@H](COCCOC)c2cccc(C(=O)NC3c4ccccc4CC3(C)O)c2)C(=N)N1 (stereo partly drawn) [Example 146A, 3-[(1S)-1-(4,4-diethyl-2-imino-6-oxo-hexahydropyrimidin-1-yl)-2-(2-methoxyethoxy)ethyl]-N-(2-hydroxy-2-methyl-indan-1-yl)benzamide]	5.3	
CCC1(CC)CC(=O)N([C@H](COCCOC)c2cccc(C(=O)NC3c4ccccc4CC3(C)O)c2)C(=N)N1 (stereo partly drawn) [Example 146B, 3-[(1S)-1-(4,4-diethyl-2-imino-6-oxo-hexahydropyrimidin-1-yl)-2-(2-methoxyethoxy)ethyl]-N-(2-hydroxy-2-methyl-indan-1-yl)benzamide]		EC50 [2]: 6.4 nM
CCC1(CC)CC(=O)N([C@H](c2cccc(OS(=O)(=O)F)c2)c2cccc(C(=O)N[C@H]3CCOc4ccccc43)c2)C(=N)N1 [Example 149A, [1-[[3-[[(4S)-chroman-4-yl]carbamoyl]phenyl]-(3-fluorosulfonyloxyphenyl)methyl]-4,4-diethyl-6-oxo-hexahydropyrimidin-2-ylidene]ammonium; 2,2,2-trifluoroacetate]		EC50 (72 h): 1.5 nM
CCC1(CC)CC(=O)N([C@@H](c2cccc(OS(=O)(=O)F)c2)c2cccc(C(=O)N[C@H]3CCOc4ccccc43)c2)C(=N)N1 [Example 149B, [1-[[3-[[(4S)-chroman-4-yl]carbamoyl]phenyl]-(3-fluorosulfonyloxyphenyl)methyl]-4,4-diethyl-6-oxo-hexahydropyrimidin-2-ylidene]ammonium; 2,2,2-trifluoroacetate]		EC50 (72 h): 57.6 nM
CCC1(CC)CC(=O)N([C@H](c2ccc(OS(=O)(=O)F)cc2)c2cccc(C(=O)N[C@H]3CCOc4ccccc43)c2)C(=N)N1 [Example 150, [1-[[3-[[(4S)-chroman-4-yl]carbamoyl]phenyl]-(4-fluorosulfonyloxyphenyl)methyl]-4,4-diethyl-6-oxo-hexahydropyrimidin-2-ylidene]ammonium; 2,2,2-trifluoroacetate]		EC50 (72 h): 2.8 nM
CCC1(CC)CC(=O)N([C@H](CCOC)c2cccc(C(=O)NC3c4ccccc4OC(C(F)(F)F)C3O)c2)C(=N)N1 (stereo partly drawn) [Example 151, [4,4-diethyl-1-[(1R)-1-[3-[[3-hydroxy-2-(trifluoromethyl)chroman-4-yl]carbamoyl]phenyl]-3-methoxy-propyl]-6-oxo-hexahydropyrimidin-2-ylidene]ammonium; 2,2,2-trifluoroacetate]	1.1	
CCC1(CC)CC(=O)N([C@H](CCOC)c2cccc(C(=O)N[C@@H]3c4ccccc4OC[C@@H]3O)c2)C(=N)N1 [Example 152A, [4,4-diethyl-1-[(1R)-1-[3-[[(3R,4R)-3-hydroxychroman-4-yl]carbamoyl]phenyl]-3-methoxy-propyl]-6-oxo-hexahydropyrimidin-2-ylidene]ammonium; 2,2,2-trifluoroacetate]	8.8	
CCC1(CC)CC(=O)N([C@H](CCOC)c2cccc(C(=O)N[C@@H]3c4ccccc4OC[C@H]3O)c2)C(=N)N1 [Example 152B, [4,4-diethyl-1-[(1R)-1-[3-[[(3S,4R)-3-hydroxychroman-4-yl]carbamoyl]phenyl]-3-methoxy-propyl]-6-oxo-hexahydropyrimidin-2-ylidene]ammonium; 2,2,2-trifluoroacetate]	2	
